Assay results as given in publication PMC10648204, “Discovery of Novel Biphenyl Carboxylic Acid Derivatives as Potent URAT1 Inhibitors” (Molecules, 2023).

Key:
URAT1 = settings: general statement in the introduction; cited from earlier work
human URAT1 = molecular target: T1, human URAT1 (Homo sapiens, UniProt Q96S37); experiment: In vitro URAT1 inhibitory assay (14C-uric acid uptake in HEK293T cells expressing human URAT1); assay type: cell-based; settings: HEK293-URAT1 cells, 14C-labeled uric acid substrate; for inhibition at 10 µM: HEK-293T, 10 μM compound, mean of three measurements
T1 construct: expressed in transfected cells; host or cells: HEK293T cells (ATCC CRL-11268)
T1 sequence (Q96S37 1-553): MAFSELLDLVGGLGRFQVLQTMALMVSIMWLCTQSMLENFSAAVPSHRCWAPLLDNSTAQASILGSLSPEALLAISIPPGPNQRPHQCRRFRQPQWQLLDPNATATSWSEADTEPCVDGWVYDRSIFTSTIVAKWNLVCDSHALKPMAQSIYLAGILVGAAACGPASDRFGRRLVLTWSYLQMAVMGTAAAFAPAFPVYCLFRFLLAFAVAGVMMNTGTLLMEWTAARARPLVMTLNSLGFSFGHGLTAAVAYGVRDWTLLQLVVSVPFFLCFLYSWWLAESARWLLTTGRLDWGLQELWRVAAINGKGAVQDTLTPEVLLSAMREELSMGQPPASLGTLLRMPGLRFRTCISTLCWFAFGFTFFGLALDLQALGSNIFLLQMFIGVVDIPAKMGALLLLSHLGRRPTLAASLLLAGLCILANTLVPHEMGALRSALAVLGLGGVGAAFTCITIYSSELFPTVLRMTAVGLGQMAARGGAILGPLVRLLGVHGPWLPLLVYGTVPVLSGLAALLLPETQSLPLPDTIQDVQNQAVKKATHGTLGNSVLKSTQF
Method: All the target compounds were evaluated for their URAT1 inhibitory activities in HEK293-URAT1 cells using ^14C-labeled uric acid as the substrate. […] The SAR exploration on series A compounds mainly focused on the hydrophobic component. […] For series B compounds, the ortho-substituted biphenyl carboxylic acid was initially kept, and various aromatic components were incorporated (B1–B25). […] Different substituents were introduced onto the 4-pyridyl (B15–B21).
In Vitro URAT1 Inhibitory Assay. A transient expression system of human URAT1 in HEK293T cells was constructed to measure ^14C-uric acid transport. […] The cell cryovials were removed from liquid nitrogen storage, and immediately placed on dry ice prior to thawing. […] The cell suspension was transferred into a 15 mL centrifuge tube, and 10 mL complete medium (DMEM +10% FBS +500 μg/mL G418 +1% P/S) was added. After centrifugation at 1000 rpm for 5 min, the supernatant was discarded, and cell precipitation was resuspended in 5 mL complete medium and transferred to a T75 culture flask. […] The uptake assay test could be carried out after cell culture adherent to the well in the 96-well plate. Then, the cells were washed with 200 µL/well of pre-warmed Cl^- free HBSS buffer, and all buffer was removed at the last washing. 50 µL/well of Cl^- free HBSS Buffer containing Uric acid [8-^14C] (2.5 μCi/mL) and samples were added to the cells, and incubated for 8 min. Then, the cells were washed three times with Cl^- free HBSS Buffer and all buffer was removed at the last washing. 50 µL/well of lysis buffer (100 mM NaOH) was added to the lysate cells and stirred at 900 rpm for 5 min. 150 µL/well MicroScint™-40 cocktail was added and agitated at 900 rpm for 5 min. Finally, the 96-plate was counted in a MicroBeta2 (PerkinElmer). The data were analyzed and IC50 values was calculated with GraphPad Prism 6 software.

SMILES	IC50 (human URAT1) [µM]	inhibition at 10 µM (human URAT1) [%]	melting point [°C]	IC50 (URAT1 inhibitor potency level, in words) (URAT1)
CCc1oc2ccccc2c1C(=O)c1cc(Br)c(O)c(Br)c1 [Benz, benzbromarone]				submicromolar level
O=C(O)CCNC(=O)c1ccccc1-c1ccccc1-c1nc(-c2ccncc2Cl)no1 [Compound B26]		35	240 to 242	
O=C(NS(=O)(=O)c1ccc(Br)cc1)c1ccccc1-c1ccccc1-c1nc(-c2ccncc2Cl)no1 [Compound B27]	1.3	96	188 to 190	
O=C(O)c1cccc(-c2ccccc2-c2nc(-c3ccncc3)no2)c1 [Compound B28]		29	288 to 289	
O=C(O)c1ccc(-c2ccccc2-c2nc(-c3ccncc3)no2)cc1 [Compound B29]		18	258 to 260	
O=C(O)CSc1nnc(Br)n1-c1ccc(C2CC2)c2ccccc12 [Lesinurad]				micromolar level

More lines, main results first:

IC50 (human URAT1) [µM]	inhibition at 10 µM (human URAT1) [%]	melting point [°C]	SMILES	IC50 (URAT1 inhibitor potency level, in words) (URAT1)
6.1	74	236 to 238	O=C(O)c1ccccc1-c1ccccc1-c1nc(-c2cnc3ccccc3c2)no1 [Compound B23]	
	67	264 to 266	O=C(O)c1ccccc1-c1ccccc1-c1nc(-c2ccc3ncccc3c2)no1 [Compound B24]	
	42	169 to 171	COc1ccc(-c2noc(-c3ccccc3-c3ccccc3C(=O)O)n2)c2ccccc12 [Compound B25]	
	33	237 to 239	O=C(O)c1ccccc1-c1ccccc1-c1nnc(-c2ccncc2)o1 [Compound B30]	
